Experimental data from US20210221848A1, “POLYMYXIN DERIVATIVES AND THEIR USE IN COMBINATION THERAPY TOGETHER WITH DIFFERENT ANTIBIOTICS” (priority 2014, published 2021).
≈ marks a conversion by molar mass, not a printed value. Bridge positions count the residues as written; N and C are the ends. Square brackets hold non-standard residues; d marks the D form. Peptide text beside a SMILES is read from it. * marks the point of attachment. ξ: configuration not given here. Thr(3ξ) = CC(O)[C@H](N)C(=O)O; X9 = CC(C)[C@H](N)CCC(=O)*; Octanoyl = CCCCCCCC(=O)*; Dab = NCC[C@H](N)C(=O)O; X15 = O=C(C1CCNC1)*; GABA = NCCCC(=O)O; βAla = NCCC(=O)O

Row | MIC (E. coli) | MIC (A. baumannii) | MIC (P. aeruginosa) | Structure (SMILES) | MIC (K. pneumoniae)
1 | 0.5 µg/mL (≈ 0.459 µM) | 4 µg/mL (≈ 3.67 µM) | – | CCCCCCCC(=O)N[C@H](C(=O)N[C@@H](CCN)C(=O)N[C@H]1CCNC(=O)[C@H]([C@@H](C)O)NC(=O)[C@H](CCN)NC(=O)[C@H](CCN)NC(=O)[C@H](CC(C)C)NC(=O)[C@@H](Cc2ccccc2)NC(=O)[C@H](CCN)NC1=O)[C@@H](C)O [CC6, Octanoyl polymyxin B nonapeptide, reference compound] (Octanoyl-T[Dab][Dab][Dab][dF]L[Dab][Dab]T; lactam 3-C) | –
2 | – | 1 µg/mL (≈ 0.841 µM) | – | CCCCCCCC(=O)N[C@@H](CCN)C(=O)N[C@H](C(=O)N[C@@H](CCN)C(=O)N[C@H]1CCNC(=O)[C@H]([C@@H](C)O)NC(=O)[C@H](CCN)NC(=O)[C@H](CCN)NC(=O)[C@H](CC(C)C)NC(=O)[C@@H](Cc2ccccc2)NC(=O)[C@H](CCN)NC1=O)C(C)O (stereo partly drawn) [CC4, Octanoyl polymyxin B decapeptide, reference compound] (Octanoyl-[Dab][Thr(3ξ)][Dab][Dab][Dab][dF]L[Dab][Dab]T; lactam 4-C) | –
3 | 4 µg/mL (≈ 3.77 µM) | – | – | CC(C)C[C@@H]1NC(=O)[C@@H](Cc2ccccc2)NC(=O)[C@H](CCN)NC(=O)[C@@H](NC(=O)[C@H](CCN)NC(=O)[C@@H](NC(=O)C2CCNC2)[C@@H](C)O)CCNC(=O)[C@H]([C@@H](C)O)NC(=O)[C@H](CCN)NC(=O)[C@H](CCN)NC1=O (stereo partly drawn) [Example B8, reference compound] (X15-T[Dab][Dab][Dab][dF]L[Dab][Dab]T; lactam 3-C) | –
4 | – | >8 µg/mL | – | CC(C)C[C@@H]1NC(=O)[C@@H](Cc2ccccc2)NC(=O)[C@H](CCN)NC(=O)[C@@H](NC(=O)[C@H](CCN)NC(=O)[C@@H](NC(=O)CCN)[C@@H](C)O)CCNC(=O)[C@H]([C@@H](C)O)NC(=O)[C@H](CCN)NC(=O)[C@H](CCN)NC1=O [Example B7, reference compound] (H-[βAla]T[Dab][Dab][Dab][dF]L[Dab][Dab]T; lactam 4-C) | –
5 | – | 4 µg/mL (≈ 3.82 µM) | – | CC(C)C[C@@H]1NC(=O)[C@@H](Cc2ccccc2)NC(=O)[C@H](CCN)NC(=O)[C@@H](NC(=O)[C@H](CCN)NC(=O)[C@@H](NC(=O)CCCN)[C@@H](C)O)CCNC(=O)[C@H]([C@@H](C)O)NC(=O)[C@H](CCN)NC(=O)[C@H](CCN)NC1=O [Example B5, reference compound] (H-[GABA]T[Dab][Dab][Dab][dF]L[Dab][Dab]T; lactam 4-C) | –
6 | 8 µg/mL (≈ 7.34 µM) | >8 µg/mL | 4 µg/mL (≈ 3.67 µM) | CC(C)C[C@@H]1NC(=O)[C@@H](Cc2ccccc2)NC(=O)[C@H](CCN)NC(=O)[C@@H](NC(=O)[C@H](CCN)NC(=O)[C@@H](NC(=O)CC[C@@H](N)C(C)C)[C@@H](C)O)CCNC(=O)[C@H]([C@@H](C)O)NC(=O)[C@H](CCN)NC(=O)[C@H](CCN)NC1=O [Example B6, reference compound] (X9-T[Dab][Dab][Dab][dF]L[Dab][Dab]T; lactam 3-C) | –

Row | Structure (SMILES) | MIC (E. coli) | MIC (A. baumannii) | MIC (P. aeruginosa) | MIC (K. pneumoniae)
7 | CCCCCCCC(=O)NCC(=O)N[C@H](C(=O)N[C@@H](CCN)C(=O)N[C@H]1CCNC(=O)[C@H]([C@@H](C)O)NC(=O)[C@H](CCN)NC(=O)[C@H](CCN)NC(=O)[C@H](CC(C)C)NC(=O)[C@@H](Cc2ccccc2)NC(=O)[C@H](CCN)NC1=O)C(C)O (stereo partly drawn) [CC5, Octanoyl-Gly- Polymyxin B nonapeptide, reference compound] (Octanoyl-G[Thr(3ξ)][Dab][Dab][Dab][dF]L[Dab][Dab]T; lactam 4-C) | 8 µg/mL (≈ 6.98 µM) | >8 µg/mL | – | 8 µg/mL (≈ 6.98 µM)
